Reference: patent US20250302780A1, “METHOD OF TREATING PREMATURE EJACULATION IN HUMAN MALES WITHOUT SYMPTOMS OF BENIGN PROSTATIC HYPERTROPHY (BPH) USING TAMSULOSIN 0.2MG QOD WHICH DELAYS EJACULATION BY REDUCING THE RATE OF SECRETION AND TRANSPORT BY SEMINAL VESICLES AND PROSTATE IN THE GENITOURINARY TRACT” (Wustashire, priority 2024, published 2025)
Like-named read-outs stand apart in the source and are kept apart here.

Columns and labels:
[1] = Focused analysis of published BPH/LUTS studies: risk of abnormal ejaculation (anejaculation or significantly reduced ejaculate) with tamsulosin; assay type: in vivo, human
Method: To objectively determine an effective tamsulosin dose for treating premature ejaculation in patients without benign prostatic hypertrophy (BPH), a focused analysis of relevant well designed research studies that examined the abnormal ejaculation side effects of tamsulosin in BPH treatment based on combined data derived from multiple sources was conducted (www.accessdata.fda.gov, n.d.; Soliman et al, 2023; Shim et al., 2016). […] These studies focused on evaluating tamsulosin treatment outcomes in patients with BPH and lower urinary tract symptoms (LUTS). The analysis leveraged the identical mechanism of action of tamsulosin in both BPH/LUTS and premature ejaculation with respect to non-vascular smooth muscle relaxation in the genitourinary tract.
The graph plots administered tamsulosin quantity in mg on the x-axis against the calculated percentage risks of these dysfunctional sequelae on the y-axis.
Further, the FIG. 4 illustrates test data on calculated risk of abnormal or adverse ejaculatory side effects at different dosages. […] Quantitative data points are shown for tamsulosin at doses of 0.8 mg, 0.4 mg, and 0.2 mg taken either on a daily (QD) basis or every other day (QOD).

[2] = cited from earlier work
[3] = 0.2 mg QD, after 8 weeks (Zhang et al.); cited from earlier work
[4] = cited from earlier work; remark: listed apart in the source

CCOc1ccccc1OCCN[C@H](C)Cc1ccc(OC)c(S(N)(=O)=O)c1 [tamsulosin]
risk of ejaculatory sequelae ([1]; 0.4 mg QOD (every other day), calculated from 5-fold reduction): 1.68%
drop in abnormal ejaculatory risk likelihood ([1]; dose reduction 0.4 mg QD to 0.2 mg QD): ~2.15 fold
reduction of projected abnormal ejaculatory risk ([1]; halving 0.8 mg QD to 0.4 mg QD): 53.6%
risk of abnormal or adverse ejaculatory side effects ([2]; 0.4 mg QD (daily)): 8.4%
abnormal ejaculatory risk reduction ([2]; 0.4 mg converted from QD to QOD (Soliman et al.)): 5 fold
risk of abnormal or adverse ejaculatory side effects ([2]; 0.8 mg QD (daily)): 18.1%
increase of intravaginal ejaculation latency time (IELT) [3]: 1.14 min
risk of adverse events [3]: 2.6%
efficacy for mild to moderate BPH symptoms ([4]; 0.2 mg QD (Shim et al.)): effective
therapeutic efficacy of QD dosing versus alternating day dosing ([4]; QD vs alternating day (Soliman et al.)): clinically similar
